Assay results reported in patent US7056913B2, “C8—linked pyrrolo[2,1-c][1,4]benzodiazepine-acridone/acridine hybrids” (Council of Scientific and Industrial Research, priority 2004, dated 2006).

What was measured:
renal cancer (SN12C) = assay: NCI in vitro cytotoxicity, SRB assay; assay type: cell-based, human; conditions: read-out: potency at the LC50 level
Description: (§1) Cytotoxicity: 7-methoxy-8-[3′-(4″-acridonylcarboxamido)propyl]-oxy-(11aS)1,2,3,11a-tetrahydro-5H-pyrrolo[2,1-c][1,4]benzodiazepin-5-one of formula IV was evaluated for primary anti-cancer activity (Table 1) and in vitro against sixty human tumour cells derived from nine cancer types (leukemia, non-small-cell lung, colon, CNS, melanoma, ovarian, prostate, and breast cancer). For each compound, dose response curves for each cell line were measured at a minimum of five concentrations at 10 fold dilutions. A protocol of 48 h continuous drug expose was used and a sulforhodamine B (SRB) protein assay was used to estimate cell viability or growth. The concentration causing 50% cell growth inhibition (GI50), total cell growth inhibition (TGI, 0% growth) and 50% cell death (LC50, −50% growth) compared with the control was calculated.

[1] = test system: melanoma cancer cell line M14; assay: NCI in vitro cytotoxicity, SRB assay; assay type: cell-based, human; conditions: read-out: potency at the LC50 level
Description: as §1

colon cancer (HCC-2998) = assay: NCI in vitro cytotoxicity, SRB assay; assay type: cell-based, human; conditions: HCC-2998 colon; read-out: potency at the LC50 level
Description: as §1

[2] = test system: melanoma cancer (UACC-62); assay: NCI in vitro cytotoxicity, SRB assay; assay type: cell-based, human; conditions: UACC-62 melanoma; read-out: potency at the LC50 level
Description: as §1

[3] = test system: breast cancer (MDA-MB-435); assay: NCI in vitro cytotoxicity, SRB assay; assay type: cell-based, human; conditions: MDA-MB-435 breast; read-out: potency at the LC50 level
Description: as §1

CNS cancer (SNB-75) = assay: NCI in vitro cytotoxicity, SRB assay; assay type: cell-based, human; conditions: SNB-75 CNS; read-out: potency at the LC50 level
Description: as §1

[4] = test system: melanoma cancer cell line LOXIMVI; assay: NCI in vitro cytotoxicity, SRB assay; assay type: cell-based, human; conditions: read-out: potency at the LC50 level
Description: as §1

MCF7 (Breast) = assay: In vitro one dose primary anticancer assay; assay type: cell-based, human; conditions: one dose at 10^−4 molar concentration
Description: as §1

SF-268 (CNS) = assay: In vitro one dose primary anticancer assay; assay type: cell-based, human; conditions: one dose at 10^−4 molar concentration
Description: as §1

NCI-H460 (Lung) = assay: In vitro one dose primary anticancer assay; assay type: cell-based, human; conditions: one dose at 10^−4 molar concentration
Description: as §1

sixty human tumour cells = assay: NCI in vitro cytotoxicity, SRB assay, mean graph midpoints; assay type: cell-based; conditions: 48 h continuous drug exposure
Description: as §1

[5] = test system: non-small-cell lung cancer cell lines; assay: NCI in vitro cytotoxicity, SRB assay, cancer type average; assay type: cell-based, human; conditions: average of six to nine cell lines
Description: as §1
(§2) Each cancer type represents the average of six to nine different cancer cell lines.

[6] = test system: Ovarian cancer cell lines; assay: as above; assay type: cell-based, human; conditions: average of six to nine cell lines
Description: as §1, §2

CNS cancer cell lines = assay: as above; assay type: cell-based, human; conditions: average of six to nine cell lines
Description: as §1, §2

[7] = test system: Melanoma cancer cell lines; assay: as above; assay type: cell-based, human; conditions: average of six to nine cell lines
Description: as §1, §2

Breast cancer cell lines = assay: as above; assay type: cell-based, human; conditions: average of six to nine cell lines
Description: as §1, §2

Renal cancer cell lines = assay: as above; assay type: cell-based, human; conditions: average of six to nine cell lines
Description: as §1, §2

Colon cancer cell lines = assay: as above; assay type: cell-based, human; conditions: average of six to nine cell lines
Description: as §1, §2

**Q.** For `COc1cc2c(cc1OCCCNC(=O)c1cccc3c(=O)c4ccccc4[nH]c13)N=C[C@@H]1CCCN1C2=O` [Compound IV, 7-methoxy-8-[3′-(4″-acridonylcarboxamido)propyl]-oxy-(11aS)1,2,3,11a-tetrahydro-5H-pyrrolo[2,1-c][1,4]benzodiazepin-5-one], which LC50 (concentration causing 50% cell death) (renal cancer (SN12C)) is on record?
**A.** > 10 µM

**Q.** And the LC50 [1]?
**A.** > 10 µM

**Q.** And the LC50 (concentration killing 50% of cells) (colon cancer (HCC-2998))?
**A.** 0.1 µM

**Q.** And the LC50 (concentration causing 50% cell death) [2]?
**A.** < 0.01 µM

**Q.** And the CC50 [3]?
**A.** 0.1 µM

**Q.** And the LC50 (concentration causing 50% cell death) (CNS cancer (SNB-75))?
**A.** 0.1 µM

**Q.** And the CC50 [4]?
**A.** > 10 µM

**Q.** And the “Growth percentages (Breast) MCF7” value (MCF7 (Breast))?
**A.** 0%

**Q.** What about the “Growth percentages (CNS) SF-268” value (SF-268 (CNS)) of the same molecule?
**A.** 10%

**Q.** What about the “Growth percentages (Lung) NCI-H460” value (NCI-H460 (Lung)) of the same molecule?
**A.** 0%

**Q.** And the “Log10 LC50 mean graph midpoint (MG_MID)” value (sixty human tumour cells; 50% cell death)?
**A.** −4.32

**Q.** What about the “Log10 GI50 mean graph midpoint (MG_MID)” value (sixty human tumour cells; 50% cell growth inhibition) of the same molecule?
**A.** −7.73

**Q.** What about the “Log10 TGI mean graph midpoint (MG_MID)” value (sixty human tumour cells; total cell growth inhibition) of the same molecule?
**A.** −5.56

**Q.** And the “Log LC50 (concentration in mol/L causing 50% lethality)” value [5]?
**A.** −4.14 log10(mol/L)

**Q.** And the “Log LC50 (concentration in mol/L causing 50% lethality)” value [6]?
**A.** −4.012 log(mol/L)

**Q.** And the “Log LC50 (concentration in mol/L causing 50% lethality)” value (CNS cancer cell lines)?
**A.** −4.425 mol/L

**Q.** What about the “Log LC50 (concentration in mol/L causing 50% lethality)” value [7] of the same molecule?
**A.** −5.09 mol/L

**Q.** What about the “Log LC50 (concentration in mol/L causing 50% lethality)” value (Breast cancer cell lines) of the same molecule?
**A.** −4.40 mol/L

**Q.** And the “Log LC50 (concentration in mol/L causing 50% lethality)” value (Renal cancer cell lines)?
**A.** −4.27 mol/L

**Q.** And the “Log LC50 (concentration in mol/L causing 50% lethality)” value (Colon cancer cell lines)?
**A.** −4.33 mol/L
